Tested on: common spider mite (Tetranychus urticae)
Assay: Tetranychus test (OP-resistant/spray treatment)
Assay type: in vivo
Details: single active compound, 0.32 ppm, spray treatment of infested bean plants (Phaseolus vulgaris), OP-resistant mites
Text: The expected action for a given combination of two active compounds can be calculated as follows, using the formula of S. R. Colby, Weeds 15 (1967), 20-22: […]
If • X is the efficacy, expressed as % of the untreated control, when employing active compound A at an application rate of m g/ha or in a concentration of m ppm, • Y is the efficacy, expressed as % of the untreated control, when employing active compound B at an application rate of n g/ha or in a concentration of n ppm and • E is the efficacy, expressed as % of the untreated control, when employing active compounds A and B at application rates of m and n g/ha or in a concentration of m and n ppm, then [formula]
If the actual insecticidal kill rate exceeds the calculated value, the action of the combination is superadditive, i.e. a synergistic effect is present. In this case, the actually observed insecticidal kill rate must exceed the value calculated using the above formula for the expected insecticidal kill rate (E).
Tetranychus test (OP-resistant/spray treatment) […]
After the desired period of time, the effect in % is determined. […] The kill rates determined are calculated using Colby's formula.

SMILES: Cc1cc(C)c(C2=C(OC(=O)CC(C)(C)C)C3(CCCC3)OC2=O)c(C)c1 [Ex. (I-b-1)]
- Kill rate in % after 14 d: 0%

SMILES: COP(N)(=O)SC (centres unmarked) [Metamidophos, methamidophos]
- Kill rate in % after 14 d: 0%

Reference: patent publication US6900190B2, “Active substance combinations having insecticidal and acaricidal properties” (priority 2000, dated 2005)
